Where two headings read alike, the source gives them in different places.
Columns and labels:
[1] = in vitro; settings: human
[2] = system: mutant D; experiment: Antiviral spectrum, fold resistance towards mutant D; type: cell-based; settings: FR=IC50(mutant strain)/IC50(HIV-1 strain LAI)
Procedure: (§1) Because of the increasing emergence of drug resistant HIV strains, the present compounds were tested for their potency against clinically isolated HIV strains harboring several mutations. These mutations are associated with resistance to protease inhibitors and result in viruses that show various degrees of phenotypic cross-resistance to the currently commercially available drugs such as for instance saquinavir, ritonavir, nelfinavir, indinavir and amprenavir. The viral strains R13025, R13027, R13028, R13029, R13034, R13080, T13127 and R13363 contained mutations as indicated below in Table 3.

[3] = system: mutant H; experiment: Antiviral spectrum, fold resistance towards mutant H; type: cell-based; settings: FR=IC50(mutant strain)/IC50(HIV-1 strain LAI)
[4] = system: mutant B; experiment: Antiviral spectrum, fold resistance towards mutant B; type: cell-based; settings: FR=IC50(mutant strain)/IC50(HIV-1 strain LAI)
Procedure: as §1

[5] = system: mutant G; experiment: Antiviral spectrum, fold resistance towards mutant G; type: cell-based; settings: FR=IC50(mutant strain)/IC50(HIV-1 strain LAI)
Procedure: as §1

[6] = system: mutant C; experiment: Antiviral spectrum, fold resistance towards mutant C; type: cell-based; settings: FR=IC50(mutant strain)/IC50(HIV-1 strain LAI)
Procedure: as §1

[7] = system: mutant F; experiment: Antiviral spectrum, fold resistance towards mutant F; type: cell-based; settings: FR=IC50(mutant strain)/IC50(HIV-1 strain LAI)
Procedure: as §1

[8] = system: HIV-1 strain LAI; experiment: Cellular anti-HIV assay, MT4 cells, MTT readout, wild type HIV-1 strain LAI; type: cell-based
Procedure: The compounds of the present invention were examined for anti-viral activity in a cellular assay. […] The cellular assay was performed according to the following procedure.

[9] = system: mutant A; type: cell-based; settings: FR=IC50(mutant strain)/IC50(HIV-1 strain LAI)
[10] = system: mutant E; type: cell-based; settings: FR=IC50(mutant strain)/IC50(HIV-1 strain LAI)
[11] = Human immunodeficiency virus 1, 120 h, Table 1, MT4 cells, five days, HIV-1 strain LAI, read-out: pIC50 (LAI) (converted)
[12] = Human immunodeficiency virus 1, MT4, Table 4, wild type HIV-LAI strain, read-out: WT (pIC50 against wild type HIV-LAI strain) (converted)

Row | Structure (SMILES) | CC50 at 5 days [1] | FR towards mutant D [2] | FR towards mutant H [3] | FR towards mutant B [4] | FR towards mutant G [5] | FR towards mutant C [6] | FR towards mutant F [7] | IC50 [8, 11] | IC50 [8, 12] | FR value towards mutant A [9] | FR towards mutant E [10]
1 | CC(C)CN(C[C@@H](O)[C@H](Cc1ccccc1)NC(=O)O[C@H]1CO[C@H]2OCC[C@H]21)S(=O)(=O)c1ccc2ncn(Cc3ccccc3)c2c1 [Compound 1, [(1S,2R)-2-hydroxy-3-[(2-methylpropyl)[[1-(phenylmethyl)benzimidazol-6-yl]sulfonyl]amino]-1-(phenylmethyl)-propyl]carbamic acid, [(3R,3aS,6aR)-hexahydrofuro[2,3-b]furan-3-yl]ester] | 63100 nM | 1.5 | 33 | 3.1 | 275 | 1.1 | 40 | 0.794 nM | 0.794 nM | 9.3 | 1.6
2 | COC(=O)Nc1nc2ccc(S(=O)(=O)N(CC(C)C)C[C@@H](O)[C@H](Cc3ccccc3)NC(=O)COc3c(C)cccc3C)cc2[nH]1 [Compound 8, [(1S,2R)-2-hydroxy-3-[[[2-[(methoxycarbonyl)amino]-1H-benzimidazol-5-yl]sulfonyl](2-methylpropyl)amino]-1-(phenylmethyl)propyl]-(2,6-dimethylphenoxy)acetamide] | > 100000 nM | 1.9 | – | 2.0 | 89 | 1.4 | 16.2 | 3.16 nM | 3.16 nM | 2.1 | 2.3
3 | CC(=O)Nc1nc2ccc(S(=O)(=O)N(CC(C)C)C[C@@H](O)[C@H](Cc3ccccc3)NC(=O)COc3c(C)cccc3C)cc2[nH]1 [Compound 9, [(1S,2R)-3-[[[2-(acetylamino)benzimidazol-5-yl]sulfonyl](2-methyl-propyl)amino]-2-hydroxy-1-(phenylmethyl)propyl]-(2,6-dimethylphenoxy)acetamide] | > 100000 nM | 2.4 | – | 1.3 | 107 | 4.4 | 14 | 3.98 nM | 3.98 nM | 4.3 | 2.8

From US8143421B2, “Broadspectrum substituted benzimidazole sulfonamide HIV protease inhibitors” (priority 2002, dated 2012)
